Experimental data as given in ChEMBL document CHEMBL1148163, “Studies on inhibitors of skin tumor promotion, XII. Rotenoids from Amorpha fruticosa” (J Nat Prod, 1993).

Key:
Raji [1] = assay: Inhibition of 12-O-tetradecanoylphorbol-13-acetate induced EBV-early antigen activation in human Raji cells assessed as EA activation at 500 molar ratio relative to TPA; assay type: cell-based; parameters: scale not given: the % may be the effect or the level left; conditions: human gammaherpesvirus 4
Raji [2] = assay: Inhibition of 12-O-tetradecanoylphorbol-13-acetate induced EBV-early antigen activation in human Raji cells assessed as EA activation at 100 molar ratio relative to TPA; assay type: cell-based; parameters: scale not given: the % may be the effect or the level left; conditions: human gammaherpesvirus 4
Raji [3] = assay: Inhibition of 12-O-tetradecanoylphorbol-13-acetate induced EBV-early antigen activation in human Raji cells assessed as EA activation at 10 molar ratio relative to TPA; assay type: cell-based; parameters: scale not given: the % may be the effect or the level left; conditions: human gammaherpesvirus 4
[4] = Cytotoxicity against human Raji cells assessed as cell viability at 1000 molar ratio; assay type: cell-based; conditions: read-out: Activity
[5] = Cytotoxicity against human Raji cells assessed as cell viability at 500 molar ratio; assay type: cell-based; conditions: read-out: Activity
[6] = Cytotoxicity against human Raji cells assessed as cell viability at 100 molar ratio; assay type: cell-based; conditions: read-out: Activity
[7] = Cytotoxicity against human Raji cells assessed as cell viability at 10 molar ratio; assay type: cell-based; conditions: read-out: Activity
Raji [8] = assay: Effect on TPA-induced cell cycle arrest in human Raji cells assessed as accumulation at G1 phase at 32 nmol by flow cytometry; assay type: functional
Raji [9] = assay: Effect on TPA-induced cell cycle arrest in human Raji cells assessed as accumulation at S phase at 32 nmol by flow cytometry; assay type: functional
Raji [10] = assay: Effect on TPA-induced cell cycle arrest in human Raji cells assessed as accumulation at G2/M phase at 32 nmol by flow cytometry; assay type: functional
Mus musculus [11] = assay: Inhibition of DMBA-induced/TPA-promoted carcinogenesis in ICR mouse assessed as number of mouse bearing one papilloma at 85 nmol administered twice weekly after 1 week of initiation; assay type: functional; parameters: scale not given: the % may be the effect or the level left
Mus musculus [12] = assay: Inhibition of DMBA-induced/TPA-promoted carcinogenesis in ICR mouse assessed as reduction in skin-papilloma formation at 85 nmol administered twice weekly after 1 week of initiation for 20 weeks; assay type: functional; parameters: scale not given: the % may be the effect or the level left
Mus musculus [13] = assay: Inhibition of DMBA-induced/TPA-promoted carcinogenesis in ICR mouse assessed as number of skin papillomas per mouse at 85 nmol administered twice weekly after 1 week of initiation for 20 weeks; assay type: functional; parameters: scale not given: the % may be the effect or the level left
Raji [14] = assay: Inhibition of 12-O-tetradecanoylphorbol-13-acetate induced EBV-early antigen activation in human Raji cells assessed as EA activation at 1000 molar ratio relative to TPA; assay type: cell-based; parameters: scale not given: the % may be the effect or the level left; conditions: human gammaherpesvirus 4

Structure (SMILES)	Activity (Raji [1]) [%]	Activity (Raji [2]) [%]	Activity (Raji [3]) [%]	viability at 1000 molar ratio [4] [%]	viability at 500 molar ratio [5] [%]	viability at 100 molar ratio [6] [%]	viability at 10 molar ratio [7] [%]	Activity (Raji [8]) [%]	Activity (Raji [9]) [%]	Activity (Raji [10]) [%]	Activity (Mus musculus [11]) [%]	Activity (Mus musculus [12]) [%]	Activity (Mus musculus [13]) [%]	Activity (Raji [14]) [%]
COC1=CC(=O)[C@]2(C=C1OC)OC[C@H]1Oc3c(ccc4c3C=CC(C)(C)O4)C(=O)[C@H]12 [AMORPHISPIRONONE]	31.8	70.4	100	20	80	80	80	59.1	10.3	30.6	20	>80	>90	0
COc1cc2c(cc1OC)[C@]1(O)C(=O)c3ccc4c(c3O[C@@H]1CO2)C=CC(C)(C)O4 [TEPHROSIN]	26.1	60.4	89.3	40	60	70	80	57.8	13.4	28.8		60	70	8
C=C(CO)[C@H]1Cc2c(ccc3c2O[C@@H]2COc4cc(OC)c(OC)cc4[C@@H]2C3=O)O1 [AMORPHIGENIN]	64.2	100	100	80	80	80	80							31.7
C=C(CO)[C@H]1Cc2c(ccc3c2O[C@@H]2COc4cc(OC)c(OC)cc4[C@]2(O)C3=O)O1 [DABINOL]	89.7	100	100	80	80	80	80							24.2
COc1cc2c(cc1OC)[C@@H]1C(=O)c3ccc4c(c3O[C@@H]1CO2)C[C@H](C(C)(C)O[C@@H]1O[C@H](CO)[C@@H](O)[C@H](O)[C@H]1O)O4	36.3	87.3	100	80	80	80	80							0
COc1cc2c(cc1OC)[C@]1(O)C(=O)c3ccc4c(c3O[C@@H]1CO2)C[C@H](C(C)(C)O)O4	43.9	82.1	100	80	80	80	80							22.6
